Experimental data published in US6929912B2 (priority 1998, dated 2005).
Several values for one entry are separate records, joined by “and”; a condition that tells them apart may be missing. Identical values can stand only once. Like-named read-outs stand apart in the source and are kept apart here.

Experiments:
breast cancer = conditions: cited from earlier work
[1] = tested on: metastatic or inflammatory breast cancer; type: in vivo, human

| SMILES | objective responses, patients (breast cancer; cyclophosphamide used alone) | objective responses, patients (breast cancer; cyclophosphamide used in combination regimens) | blood concentrations of CY on day 3 (patients carrying the CYP3A4 promoter -392 variant vs without, p=0.0247) | blood concentrations of CY on day 2 (patients carrying the CYP3A4 promoter -392 variant vs without, p=0.0260) | Apparent induction of CY metabolism (Day 3 exposure/Day 1 exposure) (patients carrying the CYP3A4 variant SNP vs without, p=0.0260) | blood concentrations of CY on day 2 (patients carrying the CYP3A5 promoter -147 variant vs without, p=0.0281) | concentrations of CY (patients with CYP3A4 B allele vs homozygous for the A allele, day not given) | Blood concentrations of CY (patients with CYP3A5 B alleles vs homozygous for the A allele, day not given) | chance of survival relative to patients homozygous for the A allele ([1]; CYP3A4 B allele patients) | Survival >3 years: Yes ([1]; CYP3A4 genotype AA (wildtype)) [%] | Survival >3 years: Yes ([1]; CYP3A4 genotype AB or BB) [%] | chance of survival relative to patients homozygous for the A allele ([1]; CYP3A5 B allele patients) | Survival >3 years: Yes ([1]; CYP3A5 genotype AA (wildtype)) [%] | Survival >3 years: Yes ([1]; CYP3A5 genotype AB or BB) [%] | Survival >3 years: Yes ([1]; human, in vivo) |
| --- | --- | --- | --- | --- | --- | --- | --- | --- | --- | --- | --- | --- | --- | --- | --- |
| O=P1(N(CCCl)CCCl)NCCCO1 (stereo not drawn) [CY, cyclophosphamide] | about 35% | up to 90% | significantly higher | significantly higher | higher | significantly higher | higher | significantly higher | ⅓ | 46.6 | 15.4 | less than ⅓ | 48.2 | 14.3 | – |
| O=NN(CCCl)C(=O)NCCCl [BCNU, 1,3-bis-(chloroethyl)-1-nitrosourea] | – | – | – | – | – | – | – | – | – | – | – | – | – | – | 55.6% and 29.7% |
